# Test results from ChEMBL document CHEMBL4396863, “Amyloid-Binding Alcohol Dehydrogenase (ABAD) Inhibitors for the Treatment of Alzheimer's Disease” (J Med Chem, 2019).
# Key:
# [1] = Inhibition of ABAD (unknown origin); parameters: species or system Homo sapiens
# [2] = Drug uptake in C57BL/6 mouse brain at 10 mg/kg by LC-MS/MS analysis; assay type: ADME, organism-based; settings: in vivo
# [3] = Cmax in C57BL/6 mouse at 10 mg/kg by LC-MS/MS analysis; assay type: ADME, organism-based; parameters: dose 10 mg/kg; settings: in vivo
# HEK293 [4] = test: Displacement of radiolabeled estradiol ABAD (unknown origin) transfected in HEK293 cells at 100 uM relative to control; assay type: cell-based; settings: Homo sapiens
# HEK293 [5] = test: Displacement of radiolabeled estradiol ABAD (unknown origin) transfected in HEK293 cells at 300 uM relative to control; assay type: cell-based; settings: Homo sapiens
# [6] = Displacement of radiolabeled estradiol ABAD (unknown origin) transfected in HEK293 cells; assay type: cell-based, Homo sapiens
SMILES,IC50 [1] [nM],other results
O=C(C(c1ccccc1)n1cnc2[nH]ncc2c1=S)N1CCC(O)(c2ccccc2)CC1 (stereo unspecified),81,–
O=C(C(c1ccccc1)n1cnc2[nH]ncc2c1=S)N1CCCCCCC1 (stereo unspecified),96,–
CCCCC1(O)CCN(C(=O)C(c2ccccc2)n2cnc3[nH]ncc3c2=S)CC1 (stereo unspecified),71,–
O=C([C@H](c1ccccc1)n1cnc2[nH]ncc2c1=S)N1CCCCCC1,92,–
COc1ccc2nc(N[C@@H](c3ccc(O)cc3)P(=O)(OC)OC)sc2c1,52700,Drug uptake [2]: 4 to 50 ng/mL; Cmax [3]: 4.8 ng/mL
COc1cccc(CN2CCN(C[C@@]3(O)CC[C@@]4(C)[C@@H](CC[C@@H]5[C@@H]4CC[C@]4(C)C(=O)CC[C@@H]54)C3)CC2)c1,–,inhibition (HEK293 [4]): 4.7%; inhibition (HEK293 [5]): 30%; IC50 [6]: 550 nM
O=C(Nc1ccc(O)c(Cl)c1)Nc1nc2ccc(Cl)cc2s1,1670,–
COc1ccc(NC(=N)Nc2nc3ccc(OC)cc3s2)cc1,3060,–

# Further lines, with some results ahead:
IC50 [1] [nM],SMILES,other results
1890,O=C(Nc1ccc(O)c(Cl)c1)Nc1nc2ccc(F)cc2s1,–
93,CCN(CC)C(=O)C(c1ccccc1)n1cnc2[nH]ncc2c1=S (stereo unspecified),–
82,O=C(C(c1ccccc1)n1cnc2[nH]ncc2c1=S)N1CCC(O)(c2ccc(Br)cc2)CC1 (stereo unspecified),–
51,O=C(C(c1cccc(O)c1)n1cnc2[nH]ncc2c1=S)N1CCCCCC1 (stereo unspecified),–
